Results published in US6348201B2, “External composition for skin comprising sphingoglycolipid” (Kibun Food Chemifa Co., Ltd., priority 1997, dated 2002).

Test system: hairless mice (Skh:hr-1)
Assay: Test for evaluating moisturizing and skin roughness prevention effects: transcutaneous transpiration measured with a hydrograph
Type: in vivo
Details: 10th day, average of five mice, relative to control (0.5% Triton X-150, 9 g/m^2/h) as 100; Triton X-150 pretreated, middle-wavelength UV 0.15 J/cm^2, samples applied once a day on rear back
Procedure: Twenty male hairless mice of 9-week old (Skh:hr-1, Nihon SLC) were treated with 0.5% Triton X-150 (50 μl) in a circular area of 2.5 cm diameter on their rear backs. The once-a-day application was continued for 5 days. On the 6th day and thereafter, middle-wavelength UV light was irradiated at a dose of 0.15 J/cm^2 using a SE lamp (manufactured by Toshiba Medical Instruments Co., Ltd.), and Samples 1 to 5 (dissolved in 0.5% Triton X-150) listed below and control sample (0.5% Triton X-150) were applied. These procedures were followed once a day and continued up to the 10th day. Five hairless mice were subjected to each test for Samples or the control.
After the middle-wavelength UV irradiation and the sample application were completed on the 10th day, amount of transcutaneous transpiration was measured using a hydrograph (model AMU-3: manufactured by Fauchon Co., Ltd.) to determine an average value for the five mice. Results were shown in the table below, where the values are expressed in relative values assuming the control (9 g/m^2/h) as 100.

Row | Molecule | Relative transcutaneous transpiration
1 | Ganglioside [Sample 4 (comparison)] | 89
2 | Glyceroglycolipid [Sample 3 (comparison)] | 123
3 | CCCCCCCCCCCCC/C=C\C(O)C(CO)NC(=O)O[C@@H]1O[C@H](CO)[C@H](O)[C@H](O)[C@H]1O (stereo partly drawn) [Sample 5 (comparison), Galactocerebroside] | 91
